The target in the test is Prothrombin (Homo sapiens, UniProt P00734). The test is described as follows: Inhibitory constant against thrombin.

A word on the Ki: it is the equilibrium dissociation constant of an inhibitor or competing ligand from its target. High values mean lower affinity, low ones higher affinity. For the molecule `CC[C@@H](C)[C@H](NC(=O)[C@@H]1CCCN1C(=O)[C@H](CCC(=O)O)NC(=O)[C@H](Cc1ccc(O)cc1)NC(=O)[C@H](CC(=O)O)NC(=O)CNC(=O)CNC(=O)CNC(=O)CNC(=O)[C@H](C)NCC(=O)[C@H](CCCN=C(N)N)NC(=O)[C@@H]1CCCN1C(=O)[C@H](N)CC1CCCCC1)C(=O)N1CCC[C@H]1C(=O)N[C@@H](CCC(=O)O)C(=O)N[C@@H](CCC(=O)O)C(=O)N[C@@H](Cc1ccc(O)cc1)C(=O)N[C@@H](CC1CCCCC1)C(=O)N[C@@H](CC(=O)O)C(=O)O`, the affinity, expressed as Ki, was 1.5 pM.

In turn, `CC[C@@H](C)[C@H](NC(=O)[C@@H]1CCCN1C(=O)[C@H](CCC(=O)O)NC(=O)[C@H](Cc1ccc(O)cc1)NC(=O)[C@H](CC(=O)O)NC(=O)CNC(=O)CNC(=O)CNC(=O)CNC(=O)CSCC(=O)[C@H](CCCN=C(N)N)NC(=O)[C@@H]1CCCN1C(=O)[C@H](N)CC1CCCCC1)C(=O)N1CCC[C@H]1C(=O)N[C@@H](CCC(=O)O)C(=O)N[C@@H](CCC(=O)O)C(=O)N[C@@H](C)C(=O)N[C@@H](CC1CCCCC1)C(=O)N[C@H](CCC(N)=O)C(=O)O` registered an inhibitory constant (Ki) of 0.35 pM.

`CC[C@@H](C)[C@H](NC(=O)[C@H](CCC(=O)O)NC(=O)[C@H](CCC(=O)O)NC(=O)[C@H](Cc1ccccc1)NC(=O)[C@H](CC(=O)O)NC(=O)CNC(=O)CNC(=O)CNC(=O)CNC(=O)CSCC(=O)[C@H](CCCN=C(N)N)NC(=O)[C@@H]1CCCN1C(=O)[C@H](N)Cc1ccccc1)C(=O)N1CCC[C@H]1C(=O)N[C@@H](CCC(=O)O)C(=O)N[C@@H](CCC(=O)O)C(=O)N[C@@H](Cc1ccc(O)cc1)C(=O)N[C@@H](CC(C)C)C(=O)N[C@@H](CCC(N)=O)C(=O)O` showed a Ki of 9.4 pM.

`CC[C@@H](C)[C@H](NC(=O)[C@@H]1CCCN1C(=O)[C@H](CCC(=O)O)NC(=O)[C@H](Cc1ccc(O)cc1)NC(=O)[C@H](CC(=O)O)NC(=O)CNC(=O)CNC(=O)CNC(=O)CNC(=O)CN(CC(=O)[C@H](CCCN=C(N)N)NC(=O)[C@@H]1CCCN1C(=O)[C@H](N)CC1CCCCC1)C(C)=O)C(=O)N1CCC[C@H]1C(=O)N[C@@H](CCC(=O)O)C(=O)N[C@@H](CCC(=O)O)C(=O)N[C@@H](Cc1ccc(O)cc1)C(=O)N[C@@H](CC1CCCCC1)C(=O)N[C@@H](CC(=O)O)C(=O)O`: affinity was put at a Ki of 1.7 pM.

For `CC[C@@H](C)[C@H](NC(=O)[C@@H]1CCCN1C(=O)[C@H](CCC(=O)O)NC(=O)[C@H](Cc1ccc(O)cc1)NC(=O)[C@H](CC(=O)O)NC(=O)CNC(=O)CNC(=O)CNC(=O)CNC(=O)CN(C)CC(=O)[C@H](CCCNC(=N)N)NC(=O)[C@@H]1CCCN1C(=O)[C@H](N)CC1CCCCC1)C(=O)N1CCC[C@H]1C(=O)N[C@@H](CCC(=O)O)C(=O)N[C@@H](CCC(=O)O)C(=O)N[C@@H](Cc1ccc(O)cc1)C(=O)N[C@@H](CC1CCCCC1)C(=O)N[C@@H](CC(=O)O)C(=O)O`, the Ki is 2 pM.

Take `CC[C@@H](C)[C@H](NC(=O)[C@H](CCC(=O)O)NC(=O)[C@H](CCC(=O)O)NC(=O)[C@H](Cc1ccccc1)NC(=O)[C@H](CC(=O)O)NC(=O)CNC(=O)CCCCCNC(=O)CNCC(=O)NCC(=O)[C@H](CCCNC(=N)N)NC(=O)[C@@H]1CCCN1C(=O)[C@H](N)Cc1ccccc1)C(=O)N1CCC[C@H]1C(=O)N[C@@H](CCC(=O)O)C(=O)N[C@@H](CCC(=O)O)C(=O)N[C@@H](Cc1ccc(O)cc1)C(=O)N[C@@H](CC(C)C)C(=O)N[C@@H](CCC(N)=O)C(=O)O`: the affinity, expressed as Ki, was 7300 pM.

As to `CC[C@@H](C)[C@H](NC(=O)[C@H](CCC(=O)O)NC(=O)[C@H](CCC(=O)O)NC(=O)[C@H](Cc1ccccc1)NC(=O)[C@H](CC(=O)O)NC(=O)CNC(=O)CNC(=O)CNC(=O)CNC(=O)CSCC(=O)[C@H](CCCNC(=N)N)NC(=O)[C@@H]1CCCN1C(=O)[C@@H](Cc1ccccc1)NC(C)=O)C(=O)N1CCC[C@H]1C(=O)N[C@@H](CCC(=O)O)C(=O)N[C@@H](CCC(=O)O)C(=O)N[C@@H](Cc1ccc(O)cc1)C(=O)N[C@@H](CC(C)C)C(=O)N[C@@H](CCC(N)=O)C(=O)O`, the affinity corresponds to a Ki of 1060 pM.

Consider `CC[C@@H](C)[C@H](NC(=O)[C@@H]1CCCN1C(=O)[C@H](CCC(=O)O)NC(=O)[C@H](Cc1ccc(O)cc1)NC(=O)[C@H](CC(=O)O)NC(=O)CNC(=O)CNC(=O)CNC(=O)CNC(=O)CN(C)CC(=O)[C@H](CCCNC(=N)N)NC(=O)[C@@H]1CCCN1C(=O)[C@H](N)Cc1ccccc1)C(=O)N1CCC[C@H]1C(=O)N[C@@H](CCC(=O)O)C(=O)N[C@@H](CCC(=O)O)C(=O)N[C@@H](Cc1ccc(O)cc1)C(=O)N[C@@H](CC1CCCCC1)C(=O)N[C@@H](CC(=O)O)C(=O)O`, for which the inhibition constant Ki stood at 35 pM.

As to `CC[C@@H](C)[C@H](NC(=O)[C@@H]1CCCN1C(=O)[C@H](CCC(=O)O)NC(=O)[C@H](Cc1ccc(O)cc1)NC(=O)[C@H](CC(=O)O)NC(=O)CNC(=O)[C@H](CC(N)=O)NC(=O)CNC(=O)CNC(=O)CNC(=O)CN[C@@H]1CCCN1CC(=O)[C@H](CCCN=C(N)N)NC(=O)[C@@H]1CCCN1C(=O)[C@H](N)CC1CCCCC1)C(=O)N1CCC[C@H]1C(=O)N[C@@H](CCC(=O)O)C(=O)N[C@@H](CCC(=O)O)C(=O)N[C@@H](C)C(=O)N[C@@H](CC1CCCCC1)C(=O)N[C@H](CCC(=O)O)C(=O)O`, the affinity, expressed as Ki, was 5.7 pM.

`CC[C@@H](C)[C@H](NC(=O)[C@@H]1CCCN1C(=O)[C@H](CCC(=O)O)NC(=O)[C@H](Cc1ccc(O)cc1)NC(=O)[C@H](CC(=O)O)NC(=O)CNC(=O)[C@H](CC(N)=O)NC(=O)CNC(=O)CNC(=O)CNC(=O)CNC(=O)CN(C)CC(=O)[C@H](CCCNC(=N)N)NC(=O)[C@@H]1CCCN1C(=O)[C@H](N)CC1CCCCC1)C(=O)N1CCC[C@H]1C(=O)N[C@@H](CCC(=O)O)C(=O)N[C@@H](CCC(=O)O)C(=O)N[C@@H](C)C(=O)N[C@@H](CC1CCCCC1)C(=O)N[C@H](CCC(=O)O)C(=O)O` returned a Ki of 0.87 pM.

The molecule `CC[C@@H](C)[C@H](NC(=O)[C@H](CCC(=O)O)NC(=O)[C@H](CCC(=O)O)NC(=O)[C@H](Cc1ccccc1)NC(=O)[C@H](CC(=O)O)NC(=O)CNC(=O)CNC(=O)CNC(=O)CNC(=O)CN(C)CC(=O)[C@H](CCCNC(=N)N)NC(=O)[C@@H]1CCCN1C(=O)[C@H](N)Cc1ccccc1)C(=O)N1CCC[C@H]1C(=O)N[C@@H](CCC(=O)O)C(=O)N[C@@H](CCC(=O)O)C(=O)N[C@@H](Cc1ccc(O)cc1)C(=O)N[C@@H](CC(C)C)C(=O)N[C@@H](CCC(N)=O)C(=O)O` came in with an inhibitory constant (Ki) of 83 pM.

Values taken from ChEMBL document CHEMBL1132149, “Potent bivalent thrombin inhibitors: replacement of the scissile peptide bond at P(1)-P(1)' with arginyl ketomethylene isosteres” (J Med Chem, 1999).
